Laboratory results from ChEMBL document CHEMBL1143858, “Structure-based design and synthesis of novel macrocyclic pyrazolo[1,5-a] [1,3,5]triazine compounds as potent inhibitors of protein kinase CK2 and their anticancer activities” (Bioorg Med Chem Lett, 2008).

test system: HCT-116; assay: Inhibition of human HCT116 cells by MTT assay; format: functional, cell-based; conditions: Homo sapiens, HCT-116

IC50 | SMILES
330 nM | O=C1CCCCc2cnn3c(Nc4cccc(C(=O)N5CC(O)C5)c4)nc(nc23)Nc2cccc(c2)N1
190 nM | CN(C)C1CCN(C(=O)c2cccc(Nc3nc4nc5c(cnn35)CCCCC(=O)Nc3cccc(c3)N4)c2)C1 (stereo unspecified)
130 nM | CCN(CC)C1CCN(C(=O)c2cccc(Nc3nc4nc5c(cnn35)CCCCC(=O)Nc3cccc(c3)N4)c2)C1 (stereo unspecified)
300 nM | CCN(CC)C1CN(C(=O)c2cccc(Nc3nc4nc5c(cnn35)CCCCC(=O)Nc3cccc(c3)N4)c2)C1
250 nM | CN1CCN(C(=O)c2cccc(Nc3nc4nc5c(cnn35)CCCCC(=O)Nc3cccc(c3)N4)c2)CC1
180 nM | CN1CCC(N(C)C(=O)c2cccc(Nc3nc4nc5c(cnn35)CCCCC(=O)Nc3cccc(c3)N4)c2)CC1
270 nM | CN1CC(NC(=O)c2cccc(Nc3nc4nc5c(cnn35)CCCCC(=O)Nc3cccc(c3)N4)c2)C1
440 nM | O=C1CCCCc2cnn3c(Nc4cccc(C(=O)N5CCNCC5)c4)nc(nc23)Nc2cccc(c2)N1
83 nM | CN1CCC(N(C)C(=O)c2cccc(Nc3nc4nc5c(cnn35)CCCCC(=O)Nc3cccc(c3)N4)c2)C1 (stereo unspecified)
150 nM | CCN(CC)CCN(C)C(=O)c1cccc(Nc2nc3nc4c(cnn24)CCCCC(=O)Nc2cccc(c2)N3)c1
130 nM | CN(C)CCN(C)C(=O)c1cccc(Nc2nc3nc4c(cnn24)CCCCC(=O)Nc2cccc(c2)N3)c1
240 nM | CN(C)CCNC(=O)c1cccc(Nc2nc3nc4c(cnn24)CCCCC(=O)Nc2cccc(c2)N3)c1

same assay, conditions: hct-116

SMILES | IC50
O=C1CCCCc2cnn3c(NC4CC4)nc(nc23)Nc2cccc(c2)N1 | 290 nM

test system: PC-3; assay: Inhibition of human PC3 cells by MTT assay; format: functional, cell-based; conditions: Homo sapiens, PC-3

IC50 | SMILES
600 nM | O=C1CCCCc2cnn3c(Nc4cccc(C(=O)N5CC(O)C5)c4)nc(nc23)Nc2cccc(c2)N1
230 nM | CN(C)C1CCN(C(=O)c2cccc(Nc3nc4nc5c(cnn35)CCCCC(=O)Nc3cccc(c3)N4)c2)C1 (stereo unspecified)
140 nM | CCN(CC)C1CCN(C(=O)c2cccc(Nc3nc4nc5c(cnn35)CCCCC(=O)Nc3cccc(c3)N4)c2)C1 (stereo unspecified)
620 nM | CCN(CC)C1CN(C(=O)c2cccc(Nc3nc4nc5c(cnn35)CCCCC(=O)Nc3cccc(c3)N4)c2)C1
500 nM | CN1CCN(C(=O)c2cccc(Nc3nc4nc5c(cnn35)CCCCC(=O)Nc3cccc(c3)N4)c2)CC1
330 nM | CN1CC(NC(=O)c2cccc(Nc3nc4nc5c(cnn35)CCCCC(=O)Nc3cccc(c3)N4)c2)C1
5100 nM | CC(=O)Nc1cccc(Nc2nc(NC3CC3)n3ncc(C#N)c3n2)c1
120 nM | CN1CCC(N(C)C(=O)c2cccc(Nc3nc4nc5c(cnn35)CCCCC(=O)Nc3cccc(c3)N4)c2)C1 (stereo unspecified)
210 nM | CN(C)CCN(C)C(=O)c1cccc(Nc2nc3nc4c(cnn24)CCCCC(=O)Nc2cccc(c2)N3)c1
380 nM | CN(C)CCNC(=O)c1cccc(Nc2nc3nc4c(cnn24)CCCCC(=O)Nc2cccc(c2)N3)c1

same assay, conditions: pc-3

SMILES | IC50
O=C1CCCCc2cnn3c(NC4CC4)nc(nc23)Nc2cccc(c2)N1 | 880 nM

target: Casein kinase II subunit alpha (Zea mays, UniProt P28523); assay: Inhibition of corn CK2; conditions: not given
Sequence (P28523 whole entry): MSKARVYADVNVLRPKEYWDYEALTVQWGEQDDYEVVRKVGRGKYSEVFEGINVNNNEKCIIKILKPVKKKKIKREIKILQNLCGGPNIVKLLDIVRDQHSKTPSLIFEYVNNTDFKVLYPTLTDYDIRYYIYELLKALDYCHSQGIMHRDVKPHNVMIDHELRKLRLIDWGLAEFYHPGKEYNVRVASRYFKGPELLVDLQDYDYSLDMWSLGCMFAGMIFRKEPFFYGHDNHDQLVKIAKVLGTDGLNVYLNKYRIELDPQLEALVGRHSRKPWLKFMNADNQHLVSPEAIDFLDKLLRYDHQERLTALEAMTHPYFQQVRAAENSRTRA

Ki | SMILES
3.6 nM | O=C1CCCCc2cnn3c(Nc4cccc(C(=O)N5CC(O)C5)c4)nc(nc23)Nc2cccc(c2)N1
1.4 nM | CN(C)C1CCN(C(=O)c2cccc(Nc3nc4nc5c(cnn35)CCCCC(=O)Nc3cccc(c3)N4)c2)C1 (stereo unspecified)
2.2 nM | CCN(CC)C1CCN(C(=O)c2cccc(Nc3nc4nc5c(cnn35)CCCCC(=O)Nc3cccc(c3)N4)c2)C1 (stereo unspecified)
3.4 nM | CCN(CC)C1CN(C(=O)c2cccc(Nc3nc4nc5c(cnn35)CCCCC(=O)Nc3cccc(c3)N4)c2)C1
1.3 nM | CN1CCN(C(=O)c2cccc(Nc3nc4nc5c(cnn35)CCCCC(=O)Nc3cccc(c3)N4)c2)CC1
1.4 nM | CN1CCC(N(C)C(=O)c2cccc(Nc3nc4nc5c(cnn35)CCCCC(=O)Nc3cccc(c3)N4)c2)CC1
7.4 nM | CN1CC(NC(=O)c2cccc(Nc3nc4nc5c(cnn35)CCCCC(=O)Nc3cccc(c3)N4)c2)C1
0.8 nM | O=C1CCCCc2cnn3c(Nc4cccc(C(=O)N5CCNCC5)c4)nc(nc23)Nc2cccc(c2)N1
2 nM | CN1CCC(N(C)C(=O)c2cccc(Nc3nc4nc5c(cnn35)CCCCC(=O)Nc3cccc(c3)N4)c2)C1 (stereo unspecified)
2.4 nM | CCN(CC)CCN(C)C(=O)c1cccc(Nc2nc3nc4c(cnn24)CCCCC(=O)Nc2cccc(c2)N3)c1
4 nM | CN(C)CCN(C)C(=O)c1cccc(Nc2nc3nc4c(cnn24)CCCCC(=O)Nc2cccc(c2)N3)c1
5.2 nM | CN(C)CCNC(=O)c1cccc(Nc2nc3nc4c(cnn24)CCCCC(=O)Nc2cccc(c2)N3)c1
